Measured values: patent publication US20220331303A1, “USE OF AN OREXIN 2 RECEPTOR AGONIST FOR THE TREATMENT OF EXCESSIVE SLEEPINESS” (Takeda Pharmaceutical Company Limited, priority 2019, published 2022)
Several values for one entry are separate records, joined by “and”; a condition that tells them apart may be missing. Equal entries are not always repeated.

Tested on: sleep-deprived healthy volunteers
Assay: Maintenance of wakefulness test (MWT) in sleep-deprived healthy volunteers
Assay type: in vivo, human
Details: for Total Sleep Time LS Mean / Total Sleep Time LS Mean Difference vs Placebo Estimate / Total Wake Time LS Mean / Total Wake Time LS Mean Difference vs Placebo Estimate: M: Modafinil 300 mg; for Duration Total Microsleeps (MWT), LS Mean / Duration Total Microsleeps (MWT), LS Mean Difference vs placebo / Latency to Sleep Onset on MWT, LS Mean / Latency to Sleep Onset on MWT, LS Mean Difference vs placebo / Stage N1 Duration (MWT), LS Mean / Stage N1 Duration (MWT), LS Mean Difference vs placebo / Stage N2 Duration (MWT), LS Mean / Stage N2 Duration (MWT), LS Mean Difference vs placebo / Total Microsleeps (MWT), LS Mean / Total Microsleeps (MWT), LS Mean Difference vs placebo: Modafinil 300 mg (M)
Method: The primary objective of this study was to determine the effect of Compound A (methyl (2R,3S)-3-((methylsulfonyl)amino)-2-(((cis-4-phenylcyclohexyl)oxy)methyl)piperidine-1-carboxylate), 44 mg (low dose [LD]) and 112 mg (high dose [HD]), after a single IV dose (compared to placebo) on promoting wakefulness as measured by sleep latency on the MWT (performed at approximately 2, 4, 6, and 8 hours post-dosing starting at approximately 1:00 AM and then at approximate times of 3:00, 5:00, and 7:00 AM) in sleep-deprived healthy volunteers.
This was a phase 1b, single-center, randomized, double-blind, double-dummy, placebo- and active-controlled, 4-period Williams design crossover study to evaluate the PK, PD, and safety of Compound A in sleep-deprived healthy volunteers. Compound A was administered as a 9-hour IV infusion.
Healthy adult male subjects aged 18 to 40 years, inclusive, who satisfied the inclusion and exclusion criteria were enrolled in the trial. On Day 1 of treatment period 1, eligible subjects were equally randomized to 4 treatment sequence groups (sequence 1 to 4) which defined the order of administration for Compound A LD, Compound A HD (both delivered as a 9-hour IV infusion), modafinil 300 mg, and placebo.
During the day before dosing on Day 1, participants were administered the KSS at scheduled timepoints. A practice MWT session was performed on Day 1 treatment period 1 (only once during the entire study) to familiarize subjects with the procedures. Study drug was administered in the clinic in the evening on Day 1 of each treatment period. Subjects underwent the MWT and KSS at specified timepoints after the start of the infusion. Subjects were required to stay awake between the MWT tests. Following completion of the IV infusion on Day 2, subjects underwent an additional MWT test. When the final MWT test and cognitive testing were completed, subjects were allowed to sleep (recovery sleep) for approximately 6 hours. PSG recording was collected during this time. Subjects were discharged from the unit after completion on Day 2 with continuing actigraphy upon discharge (to begin on Day −6 before the next treatment period). The interval between each subsequent treatment period was at least 7 days to ensure that the subject's circadian rhythm had returned to a normal cycle. Subject's vital signs, including BP, were monitored during the dosing and testing period. Blood samples for determination of Compound A plasma concentrations were collected at specified timepoints on Days 1 and 2 of each treatment period. Subjects completed the Columbia-Suicide Severity Rating Scale (C-SSRS) during screening, before study drug administration, and before discharge on Day 2 of each treatment period.
Primary endpoint: Latency for each MWT, defined as time to sleep onset.

[1] = Average Overall, MWT during infusion
[2] = Modafinil 300 mg, after the end of infusion (1 hour post end of infusion)

NC(=O)C[S+]([O-])C(c1ccccc1)c1ccccc1 (centres unmarked) [Modafinil, modafinil, reference compound]
Total Sleep Time LS Mean (2 HOURS POST INFUSION START): 0.88 min
Total Sleep Time LS Mean Difference vs Placebo Estimate (2 HOURS POST INFUSION START): -1.85 min
Total Wake Time LS Mean (2 HOURS POST INFUSION START): 34.87 min
Total Wake Time LS Mean Difference vs Placebo Estimate (2 HOURS POST INFUSION START): 17.15 min
Total Sleep Time LS Mean (4 HOURS POST INFUSION START): 0.96 min
Total Sleep Time LS Mean Difference vs Placebo Estimate (4 HOURS POST INFUSION START): -2.19 min
Total Wake Time LS Mean (4 HOURS POST INFUSION START): 36.45 min
Total Wake Time LS Mean Difference vs Placebo Estimate (4 HOURS POST INFUSION START): 26.40 min
Total Sleep Time LS Mean (6 HOURS POST INFUSION START): 1.25 min
Total Sleep Time LS Mean Difference vs Placebo Estimate (6 HOURS POST INFUSION START): -0.98 min
Total Wake Time LS Mean (6 HOURS POST INFUSION START): 33.11 min
Total Wake Time LS Mean Difference vs Placebo Estimate (6 HOURS POST INFUSION START): 26.69 min
Total Sleep Time LS Mean (8 HOURS POST INFUSION START): 2.35 min
Total Sleep Time LS Mean Difference vs Placebo Estimate (8 HOURS POST INFUSION START): -0.57 min
Total Wake Time LS Mean (8 HOURS POST INFUSION START): 22.32 min
Total Wake Time LS Mean Difference vs Placebo Estimate (8 HOURS POST INFUSION START): 18.67 min
Total Sleep Time LS Mean [1]: 1.36 min
Total Sleep Time LS Mean Difference vs Placebo Estimate [1]: -1.40 min
Total Wake Time LS Mean [1]: 31.69 min
Total Wake Time LS Mean Difference vs Placebo Estimate [1]: 22.23 min
Average total wake time (MWT), LS mean difference vs placebo (Modafinil 300 mg): 22.23 min
Total sleep time (MWT), LS mean difference vs placebo (Modafinil 300 mg): -1.40 min
Duration Total Microsleeps (MWT), LS Mean (2 hours post infusion start): 5.75 s
Duration Total Microsleeps (MWT), LS Mean Difference vs placebo (2 hours post infusion start): -3.05 s
Latency to Sleep Onset on MWT, LS Mean (2 hours post infusion start): 35.57 min
Latency to Sleep Onset on MWT, LS Mean Difference vs placebo (2 hours post infusion start): 19.89 min
Stage N1 Duration (MWT), LS Mean (2 hours post infusion start): 0.47 min
Stage N1 Duration (MWT), LS Mean Difference vs placebo (2 hours post infusion start): -0.68 min
Stage N2 Duration (MWT), LS Mean (2 hours post infusion start): 0.36 min
Stage N2 Duration (MWT), LS Mean Difference vs placebo (2 hours post infusion start): -0.49 min
Total Microsleeps (MWT), LS Mean (2 hours post infusion start): 1.06
Total Microsleeps (MWT), LS Mean Difference vs placebo (2 hours post infusion start): −0.74
Duration Total Microsleeps (MWT), LS Mean (4 hours post infusion start): 7.91 s
Duration Total Microsleeps (MWT), LS Mean Difference vs placebo (4 hours post infusion start): -4.39 s
Latency to Sleep Onset on MWT, LS Mean (4 hours post infusion start): 35.60 min
Latency to Sleep Onset on MWT, LS Mean Difference vs placebo (4 hours post infusion start): 26.50 min
Stage N1 Duration (MWT), LS Mean (4 hours post infusion start): 0.68 min
Stage N1 Duration (MWT), LS Mean Difference vs placebo (4 hours post infusion start): -0.97 min
Stage N2 Duration (MWT), LS Mean (4 hours post infusion start): 0.20 min
Stage N2 Duration (MWT), LS Mean Difference vs placebo (4 hours post infusion start): -0.95 min
Total Microsleeps (MWT), LS Mean (4 hours post infusion start): 1.27
Total Microsleeps (MWT), LS Mean Difference vs placebo (4 hours post infusion start): −1.08
Duration Total Microsleeps (MWT), LS Mean (6 hours post infusion start): 9.70 s
Duration Total Microsleeps (MWT), LS Mean Difference vs placebo (6 hours post infusion start): 2.30 s
Latency to Sleep Onset on MWT, LS Mean (6 hours post infusion start): 31.89 min
Latency to Sleep Onset on MWT, LS Mean Difference vs placebo (6 hours post infusion start): 25.74 min
Stage N1 Duration (MWT), LS Mean (6 hours post infusion start): 0.84 min
Stage N1 Duration (MWT), LS Mean Difference vs placebo (6 hours post infusion start): -0.31 min
Stage N2 Duration (MWT), LS Mean (6 hours post infusion start): 0.20 min
Stage N2 Duration (MWT), LS Mean Difference vs placebo (6 hours post infusion start): -0.30 min
Total Microsleeps (MWT), LS Mean (6 hours post infusion start): 1.85
Total Microsleeps (MWT), LS Mean Difference vs placebo (6 hours post infusion start): 0.60
Duration Total Microsleeps (MWT), LS Mean (8 hours post infusion start): 12.64 s
Duration Total Microsleeps (MWT), LS Mean Difference vs placebo (8 hours post infusion start): 4.84 s
Latency to Sleep Onset on MWT, LS Mean (8 hours post infusion start): 20.44 min
Latency to Sleep Onset on MWT, LS Mean Difference vs placebo (8 hours post infusion start): 16.91 min
Stage N1 Duration (MWT), LS Mean (8 hours post infusion start): 1.15 min
Stage N1 Duration (MWT), LS Mean Difference vs placebo (8 hours post infusion start): 0.00 min
Stage N2 Duration (MWT), LS Mean (8 hours post infusion start): 0.89 min
Stage N2 Duration (MWT), LS Mean Difference vs placebo (8 hours post infusion start): -0.21 min
Total Microsleeps (MWT), LS Mean (8 hours post infusion start): 2.22
Total Microsleeps (MWT), LS Mean Difference vs placebo (8 hours post infusion start): 0.92
Duration Total Microsleeps (MWT), LS Mean (average overall): 9.00 s
Duration Total Microsleeps (MWT), LS Mean Difference vs placebo (average overall): -0.08 s
Latency to Sleep Onset on MWT, LS Mean (average overall): 30.87 min and 30.87 (1.888) min
Latency to Sleep Onset on MWT, LS Mean Difference vs placebo (average overall): 22.26 min and 22.3 min and 22.62 min and 22.26 (2.634) min
Stage N1 Duration (MWT), LS Mean (average overall): 0.79 min
Stage N1 Duration (MWT), LS Mean Difference vs placebo (average overall): -0.49 min
Stage N2 Duration (MWT), LS Mean (average overall): 0.41 min
Stage N2 Duration (MWT), LS Mean Difference vs placebo (average overall): -0.49 min
Total Microsleeps (MWT), LS Mean (average overall): 1.60
Total Microsleeps (MWT), LS Mean Difference vs placebo (average overall): −0.08
Latency to Sleep Onset on MWT, LS Mean (SE) [2]: 21.42 (2.168)
Latency to Sleep Onset on MWT, LS Mean Difference vs placebo, Estimate (SE) [2]: 16 minutes and 16.77 (2.692) minutes
